Earlier results as cited in PMC3099137 (Bioorganic & medicinal chemistry, 2011).

How the values were obtained:
[1] = target: EGFR tyrosine kinase; conditions: read-out: IC50, inhibition of EGFR tyrosine kinase activity
[2] = mice, attributed to in vivo defluorination

Row | SMILES | IC50 [1] | bone uptake (in words) [2]
1 | CCOc1cc2ncnc(Nc3cccc(Br)c3)c2cc1OCC [diethoxy- derivative] | 6 pM | 
2 | COc1cc2ncnc(Nc3ccc([18F])c(Cl)c3)c2cc1OC [4-(3-chloro-4-[^18F]fluoroanilino)-6,7-dimethoxy-quinazoline] |  | high bone uptake
3 | COc1cc2ncnc(Nc3cccc(Br)c3)c2cc1OC [PD153035, 6,7-dimethoxy-4-(3-bromoanilino)quinazoline] | 25 pM | 
